Earlier results, collected in patent EP1932526A1, “Morin, a new inhibitor of microbial hyaluronate lyase” (Leibniz-Institut für Naturstoff-Forschung und …, priority 2006, dated 2008).

Conditions: species and route not given

Compound: O=c1c(O)c(-c2ccc(O)cc2O)oc2cc(O)cc(O)c12 [morin, 2',3,4',5,7-pentahydroxyflavone]
- LD50 value: 555 mg/kg
